The values that follow come from patent publication US8211890B2, “5-amino-2-(1-hydroxy-ethyl)-tetrahydropyran derivatives” (Actelion Pharmaceuticals, priority 2008, dated 2012).

Values after ≈ are worked out from the molar mass of the structure shown.

The subject of the first data set is S. aureus A798. The data set can be described thus: Bacterial growth minimal inhibitory concentrations (microdilution, cation-adjusted Mueller-Hinton Broth). Type of data set: cell-based. The note with it: Staphylococcus aureus, microdilution. Here is the method: Minimal inhibitory concentrations (MICs; mg/l) were determined in cation-adjusted Mueller-Hinton Broth by a microdilution method following the description given in “Methods for Dilution Antimicrobial Susceptibility Tests for Bacteria that Grow Aerobically”, Approved standard, 7th ed., Clinical and Laboratory Standards Institute (CLSI) Document M7-A7, Wayne, Pa., USA, 2006.
For orientation: MIC means the lowest concentration that inhibits growth of the organism. Regarding `COc1cnc2ccc(F)c(C[C@H](O)[C@@H]3CC[C@@H](NCc4cc5c(nn4)OCCS5)CO3)c2n1` [Example 15, (1S)-1-{(2S,5R)-5-[(6,7-dihydro-8-oxa-5-thia-1,2-diaza-naphthalen-3-ylmethyl)-amino]-tetrahydro-pyran-2-yl}-2-(6-fluoro-3-methoxy-quinoxalin-5-yl)-ethanol], the MIC was not above 0.031 µg/mL.

In turn, `COc1cnc2ccc(F)c(C[C@H](O)[C@@H]3CC[C@@H](NCc4cc5c(cn4)OCCO5)CO3)c2n1` [Example 12, (1S)-1-{(2S,5R)-5-[(2,3-dihydro-[1,4]dioxino[2,3-c]pyridin-7-ylmethyl)-amino]-tetrahydro-pyran-2-yl}-2-(6-fluoro-3-methoxy-quinoxalin-5-yl)-ethanol] registered an MIC not above 0.031 µg/mL. Still for that read-out and setting: to `[2H]C(c1c(F)cnc2ccc(OC)nc12)[C@H](O)[C@@H]1CC[C@@H](NCc2cc3c(cn2)OCCS3)CO1` (stereo partly drawn) [Example 21, (S)-1-((2S,5R)-5-(((2,3-dihydro-[1,4]oxathiino[2,3-c]pyridin-7-yl)methyl)amino)tetrahydro-2H-pyran-2-yl)-2-(3-fluoro-6-methoxy-1,5-naphthyridin-4-yl)ethanol-2-d1] belongs not above 0.031 µg/mL; to `COc1ccc2nccc(C[C@H](O)[C@@H]3CC[C@@H](NCc4cc5c(cn4)OCCO5)CO3)c2n1` [Example 1, (1S)-1-{(2S,5R)-5-[(2,3-dihydro-[1,4]dioxino[2,3-c]pyridin-7-ylmethyl)-amino]tetrahydro-pyran-2-yl}-2-(6-methoxy-[1,5]naphthyridin-4-yl)-ethanol], not above 0.031 µg/mL; to `COc1cnc2ccc(F)c(C[C@H](O)[C@@H]3CC[C@@H](NCc4cc5c(cn4)OCCS5)CO3)c2n1` [Example 14, (1S)-1-{(2S,5R)-5-[(2,3-dihydro-4-oxa-1-thia-6-aza-naphthalen-7-ylmethyl)-amino]-tetrahydro-pyran-2-yl}-2-(6-fluoro-3-methoxy-quinoxalin-5-yl)-ethanol], not above 0.031 µg/mL. Same read-out and setting: to `[2H]C(N[C@@H]1CC[C@@H]([C@@H](O)Cc2c(F)cnc3ccc(OC)nc23)OC1)c1cc2c(nn1)OCCS2` (stereo partly drawn) [Example 23, (S)-1-{(2S,5R)-5-[(6,7-dihydro-8-oxa-5-thia-1,2-diaza-naphthalen-3-ylmethyl-d1)-amino]-tetrahydro-pyran-2-yl}-2-(3-fluoro-6-methoxy-[1,5]naphthyridin-4-yl)-ethanol] belongs not above 0.031 µg/mL; to `COc1ccc2ccc(F)c(C[C@H](O)[C@@H]3CC[C@@H](NCc4cc5c(cn4)OCCO5)CO3)c2n1` [Example 5, (1S)-1-{(2S,5R)-5-[(2,3-dihydro-[1,4]dioxino[2,3-c]pyridin-7-ylmethyl)-amino]-tetrahydro-pyran-2-yl}-2-(7-fluoro-2-methoxy-quinolin-8-yl)-ethanol], not above 0.031 µg/mL.

Compound `COc1ccc2ncc(F)c(C[C@H](O)[C@@H]3CC[C@@H](NCc4cc5c(cn4)OCCC5)CO3)c2n1` [Example 10, (1S)-1-{(2S,5R)-5-[(3,4-dihydro-2H-pyrano[2,3-c]pyridin-6-ylmethyl)-amino]-tetrahydro-pyran-2-yl}-2-(3-fluoro-6-methoxy-[1,5]naphthyridin-4-yl)-ethanol] displayed an MIC not above 0.031 µg/mL. For the compound `COc1ccc2ncc(F)c(C[C@H](O)[C@@H]3CC[C@@H](NCc4cc5c(cn4)OCCS5)CO3)c2n1` [Example 6, (1S)-1-{(2S,5R)-5-[(2,3-dihydro-4-oxa-1-thia-6-aza-naphthalen-7-ylmethyl)-amino]-tetrahydro-pyran-2-yl}-2-(3-fluoro-6-methoxy-[1,5]naphthyridin-4-yl)-ethanol], the MIC was not above 0.031 µg/mL.

The compound `COc1cnc2ccc(F)c(C[C@H](O)[C@@H]3CC[C@@H](NCc4cc5c(nn4)OCCO5)CO3)c2n1` [Example 13, (1S)-1-{(2S,5R)-5-[(6,7-dihydro-[1,4]dioxino[2,3-c]pyridazin-3-ylmethyl)-amino]tetrahydro-pyran-2-yl}-2-(6-fluoro-3-methoxy-quinoxalin-5-yl)-ethanol] displayed an MIC not above 0.031 µg/mL.

Regarding `[2H]C(N[C@@H]1CC[C@@H]([C@@H](O)Cc2c(F)cnc3ccc(OC)nc23)OC1)c1cc2c(cn1)OCCO2` (stereo partly drawn) [Example 16, (1S)-1-((2S,5R)-5-(((2,3-dihydro-[1,4]dioxino[2,3-c]pyridin-7-yl)methyl-d1)amino)tetrahydro-2H-pyran-2-yl)-2-(3-fluoro-6-methoxy-1,5-naphthyridin-4-yl)ethanol], the minimal inhibitory concentration (MIC) was not above 0.031 µg/mL. Still for that read-out and setting: to `[2H][C@](O)(Cc1c(F)cnc2ccc(OC)nc12)[C@@H]1CC[C@@H](NCc2cc3c(cn2)OCCO3)CO1` (single isomer, unassigned) [Example 18] belongs not above 0.031 µg/mL; to `COc1ccc2ncc(F)c(C[C@H](O)[C@@H]3CC[C@@H](NCc4cc5c(nn4)OCCS5)CO3)c2n1` [Example 11, (1S)-1-{(2S,5R)-5-[(6,7-dihydro-8-oxa-5-thia-1,2-diaza-naphthalen-3-ylmethyl)-amino]-tetrahydro-pyran-2-yl}-2-(3-fluoro-6-methoxy-[1,5]naphthyridin-4-yl)-ethanol], not above 0.031 µg/mL; to `COc1ccc2ccc(F)c(C[C@H](O)[C@@H]3CC[C@@H](NCc4cc5c(cn4)OCS5)CO3)c2n1` [Example 9, (1S)-2-(7-fluoro-2-methoxy-quinolin-8-yl)-1-{(2S,5R)-5-[(3-oxa-1-thia-5-aza-indan-6-ylmethyl)-amino]-tetrahydro-pyran-2-yl}-ethanol], not above 0.031 µg/mL. Consider `COc1ccc2ncc(F)c(C[C@H](O)[C@@H]3CC[C@@H](NCc4cc5c(cn4)OCS5)CO3)c2n1` [Example 8, (1S)-2-(3-fluoro-6-methoxy-[1,5]naphthyridin-4-yl)-1-{(2S,5R)-5-[(3-oxa-1-thia-5-aza-indan-6-ylmethyl)-amino]tetrahydro-pyran-2-yl}-ethanol], for which the MIC is not above 0.031 µg/mL. In the case of `[2H]C(c1c(F)cnc2ccc(OC)nc12)[C@H](O)[C@@H]1CC[C@@H](NCc2cc3c(cn2)OCCO3)CO1` (stereo partly drawn) [Example 20, (1S)-1-((2S,5R)-5-(((2,3-dihydro-[1,4]dioxino-[2,3-c]pyridin-7-yl)methyl)amino)tetrahydro-2H-pyran-2-yl)-2-(3-fluoro-6-methoxy-1,5-naphthyridin-4-yl)ethanol-2-d1], the MIC was not above 0.031 µg/mL. `[2H]C(N[C@@H]1CC[C@@H]([C@@H](O)Cc2c(F)cnc3ccc(OC)nc23)OC1)c1cc2c(cn1)OCCS2` (stereo partly drawn) [Example 19, (S)-1-((2S,5R)-5-(((2,3-dihydro-[1,4]oxathiino[2,3-c]pyridin-7-yl)methyl-d1)amino)tetrahydro-2H-pyran-2-yl)-2-(3-fluoro-6-methoxy-1,5-naphthyridin-4-yl)ethanol] showed an MIC not above 0.031 µg/mL.

In turn, `[2H]C([2H])(N[C@@H]1CC[C@@H]([C@@H](O)Cc2c(F)cnc3ccc(OC)nc23)OC1)c1cc2c(cn1)OCCO2` [Example 24, (1S)-1-((2S,5R)-5-(((2,3-dihydro-[1,4]dioxino [2,3-c]pyridin-7-yl)methyl-d2)amino)tetrahydro-2H-pyran-2-yl)-2-(3-fluoro-6-methoxy-1,5-naphthyridin-4-yl)ethanol] showed an MIC not above 0.031 µg/mL. Consider `COc1ccc2nccc(C[C@H](O)[C@@H]3CC[C@@H](NCc4cc5c(nn4)OCCO5)CO3)c2n1` [Example 2, (1S)-1-{(2S,5R)-5-[(6,7-dihydro-[1,4]dioxino[2,3-c]pyridazin-3-ylmethyl)-amino]-tetrahydro-pyran-2-yl}-2-(6-methoxy-[1,5]naphthyridin-4-yl)-ethanol], for which it took 0.25 µg/mL (≈ 0.551 µM) to inhibit growth (MIC). Same read-out and setting: then `COc1ccc2ccc(F)c(C[C@H](O)[C@@H]3CC[C@@H](NCc4cc5c(cn4)OCCS5)CO3)c2n1` [Example 7, (1S)-1-{(2S,5R)-5-[(2,3-dihydro-4-oxa-1-thia-6-aza-naphthalen-7-ylmethyl)-amino]-tetrahydro-pyran-2-yl}-2-(7-fluoro-2-methoxy-quinolin-8-yl)-ethanol], with not above 0.031 µg/mL.

Staying with this data set, now noted: comparison table of compounds of formula ICOMP.
Regarding `COc1ccc2nccc(C[C@H](O)[C@@H]3CC[C@@H](NCc4cc5c(cn4)OCCO5)CO3)c2n1` [Example 1, (1S)-1-{(2S,5R)-5-[(2,3-dihydro-[1,4]dioxino[2,3-c]pyridin-7-ylmethyl)-amino]tetrahydro-pyran-2-yl}-2-(6-methoxy-[1,5]naphthyridin-4-yl)-ethanol], the “MIC for S. aureus A798” value was “≦0.031 mg/l”.

Staying with this data set, now noted: microdilution.
As to “(1S)-1-((2S,5R)-5-(((2,3-dihydro-[1,4]dioxino-2,2,3,3-d4-[2,3-c]pyridin-7-yl)methyl)amino)tetrahydro-2H-pyran-2-yl)-2-(3-fluoro-6-methoxy-1,5-naphthyridin-4-yl)ethanol [Example 17]”, the “MIC for S. aureus A798” value was “≦0.031 mg/l”. Still for that read-out and setting: then “(S)-((1S,5R)-5-(((2,3-dihydro-[1,4]oxathiino[2,3-c]pyridin-7-yl)methyl)amino)tetrahydro-2H-pyran-2-yl)-2-(3-fluoro-6-methoxy-1,5-naphthyridin-4-yl)ethanol-1-d1 [Example 22]”, with “≦0.031 mg/l”.

The target in another data set is hERG K+ channel (Homo sapiens, UniProt Q12809). The data set can be described thus: In vitro blocking of hERG K+ channels (QPatch automated patch-clamp, CHO-K1 cells). The data set is classed as cell-based. The note with it: pH 7.4, at 10 μM, CHOhERG cells, 4 minutes of stimulation, average block on two cells. Here is the method: hERG K^+ channels have been cloned from human heart and recombinant channels are stably expressed in CHO-K1 cells (CHOhERG). These cells have been purchased from bSys GmbH (CH-4052 Basel, Switzerland) and are grown in 150 mL culture flasks at 37° C. in 5% CO2. When the cells are ˜100% confluent, they are detached with 0.25% trypsin-EDTA solution and placed in the cell preparation unit of a QPatch automated patch-clamp robot (Sophion Bioscience A/S, 2750 Ballerup, Denmark). Currents through the hERG K^+ channels (IKhERG) are elicited using the following buffer solutions and voltage protocol: • extracellular solution (in mM): [NaCl]=150; [KCl]=4; [CaCl2]=1.2; [MgCl2]=1; [HEPES]=10; pH adjusted to 7.4 with NaOH; • intracellular solution (in mM): [KCl]=140; [NaCl]=10; [MgCl2]=1; [HEPES]=10; [EGTA]=5; [Mg-ATP]=5; […] After the cells have stabilized for a few minutes and the currents are steady, the amplitude of IKhERG is recorded under control conditions. Thereafter, the QPatch robot applies the test compound to the cell at the test concentration and, after 4 minutes of stimulation, the amplitude of IKhERG is recorded under test conditions. The ratio of the two amplitudes is used to define a fractional block and the average block on two cells is used to provide the effect of a given concentration (e.g. 10 μM). If, for a given test compound, a sufficient number of concentrations were tested, an apparent IC50 for inhibition of IKhERG is calculated.
Sequence of hERG K+ channel (Q12809 whole entry): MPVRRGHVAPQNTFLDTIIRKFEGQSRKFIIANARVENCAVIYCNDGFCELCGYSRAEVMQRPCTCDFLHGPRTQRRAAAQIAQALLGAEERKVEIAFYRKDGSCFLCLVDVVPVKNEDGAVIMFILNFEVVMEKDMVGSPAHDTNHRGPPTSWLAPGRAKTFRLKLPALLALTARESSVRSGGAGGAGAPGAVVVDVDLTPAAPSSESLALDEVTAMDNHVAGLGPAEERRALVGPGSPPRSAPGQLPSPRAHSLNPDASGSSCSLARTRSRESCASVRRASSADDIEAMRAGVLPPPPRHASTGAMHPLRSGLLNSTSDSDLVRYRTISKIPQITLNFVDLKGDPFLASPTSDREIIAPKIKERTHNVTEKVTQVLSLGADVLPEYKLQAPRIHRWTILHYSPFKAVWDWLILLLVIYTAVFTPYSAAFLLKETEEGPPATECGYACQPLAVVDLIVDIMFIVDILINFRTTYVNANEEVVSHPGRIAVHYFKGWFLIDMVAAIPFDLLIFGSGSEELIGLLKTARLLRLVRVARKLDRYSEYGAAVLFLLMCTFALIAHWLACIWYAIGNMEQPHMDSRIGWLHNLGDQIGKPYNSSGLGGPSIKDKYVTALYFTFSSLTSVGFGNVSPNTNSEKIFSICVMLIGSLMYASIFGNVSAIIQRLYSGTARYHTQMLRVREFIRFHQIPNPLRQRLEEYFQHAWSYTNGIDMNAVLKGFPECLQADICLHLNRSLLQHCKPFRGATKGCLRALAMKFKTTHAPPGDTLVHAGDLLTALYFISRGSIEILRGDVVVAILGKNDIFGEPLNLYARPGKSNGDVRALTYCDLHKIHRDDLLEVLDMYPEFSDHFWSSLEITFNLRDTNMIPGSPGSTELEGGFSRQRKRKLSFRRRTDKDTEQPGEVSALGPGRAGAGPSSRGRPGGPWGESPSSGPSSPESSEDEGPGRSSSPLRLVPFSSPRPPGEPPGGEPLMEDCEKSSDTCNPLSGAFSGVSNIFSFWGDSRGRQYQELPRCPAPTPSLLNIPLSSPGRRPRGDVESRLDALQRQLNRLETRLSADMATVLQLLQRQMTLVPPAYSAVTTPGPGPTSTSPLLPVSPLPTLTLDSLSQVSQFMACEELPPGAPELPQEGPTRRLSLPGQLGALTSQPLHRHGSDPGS
In general terms: Block of hERG is tested as a sign of cardiac risk.
Usually inhibition stands for how much of the control response was suppressed. Read a low inhibition as a response near the control. For the compound `COc1ccc2nccc(C[C@H](O)[C@@H]3CC[C@@H](NCc4cc5c(cn4)OCCO5)CO3)c2n1` [Example 1, (1S)-1-{(2S,5R)-5-[(2,3-dihydro-[1,4]dioxino[2,3-c]pyridin-7-ylmethyl)-amino]tetrahydro-pyran-2-yl}-2-(6-methoxy-[1,5]naphthyridin-4-yl)-ethanol], the inhibition at 4 min, 10 µM came out at 26%.
